Data set [1] deals with T1, AChE from Electrophorus electricus (Electrophorus electricus, UniProt O42275).
T1 construct: purchased Macklin
The data set is described as follows: biochemical. To be noted: for IC50: AChE from Electrophorus electricus, mean ± SD (n=3); for AChE inhibitory activity (in words): verbal summary of Table 2; for Selectivity AChE/BuChE (in words): verbal summary of SI. The class given is biochemical. On the procedure: (§1) In the experiment, 0.05 mol/L phosphate buffered saline (PBS) of pH 8.0 was prepared first, and then the following solutions were prepared: 1.5 mmol/L Acetylthiocholine iodide (ATChI); 0.75 mmol/L 5, 5'-Dithiobis-(2-nitrobenzoic acid) (DTNB, Sigma Aldrich, St. Louis, MO); 0.2 U/mL Acetylcholinesterase (AChE, from […], Macklin); 0.5 U/mL Butyrylcholinesterase (BuChE, from equine serum, Aladdin, Shanghai, China); 1.5 mmol/L S-Butyrylthiocholine iodide (BTChI, Sigma Aldrich, St. Louis, MO). 4% sodium dodecyl sulphate (SDS) was prepared with secondary water. […] All solutions were stored in a refrigerator at 4 °C.
(§2) The AChE/BuChE inhibitory activity of the 3–(4-aminophenyl)-coumarin derivatives was determined by the method of Ellaman[28] with slight modifications. The experiment was divided into control group, sample blank group and sample group. Take a series of test tubes, the reagents were loaded in test tubes at the dose of Table 6. After incubation at 37 °C for 20 min, quickly add 1 mL of 4% SDS to stop the reaction. […] All experiments were run in triplicate. The absorbance was determined by UV spectrophotometer, and the inhibition rate of AChE and the IC50 value of each sample were calculated according to the formula. Inhibition rate % = {[(AC−AS)−ASB]/AC} ×100%, where AC (no sample added) is the absorbance of control group; AS is the absorbance of sample group; ASB (add sample solution but no substrate ATChI added) is the absorbance of sample blank group.

The target of a further data set is T2, BuChE from equine serum (Equus caballus, UniProt P81908).
T2 construct: Butyrylcholinesterase (BuChE, from equine serum, Aladdin, Shanghai, China); purchased Aladdin, Shanghai, China; host or cells: equine serum
T2 sequence (P81908 whole entry): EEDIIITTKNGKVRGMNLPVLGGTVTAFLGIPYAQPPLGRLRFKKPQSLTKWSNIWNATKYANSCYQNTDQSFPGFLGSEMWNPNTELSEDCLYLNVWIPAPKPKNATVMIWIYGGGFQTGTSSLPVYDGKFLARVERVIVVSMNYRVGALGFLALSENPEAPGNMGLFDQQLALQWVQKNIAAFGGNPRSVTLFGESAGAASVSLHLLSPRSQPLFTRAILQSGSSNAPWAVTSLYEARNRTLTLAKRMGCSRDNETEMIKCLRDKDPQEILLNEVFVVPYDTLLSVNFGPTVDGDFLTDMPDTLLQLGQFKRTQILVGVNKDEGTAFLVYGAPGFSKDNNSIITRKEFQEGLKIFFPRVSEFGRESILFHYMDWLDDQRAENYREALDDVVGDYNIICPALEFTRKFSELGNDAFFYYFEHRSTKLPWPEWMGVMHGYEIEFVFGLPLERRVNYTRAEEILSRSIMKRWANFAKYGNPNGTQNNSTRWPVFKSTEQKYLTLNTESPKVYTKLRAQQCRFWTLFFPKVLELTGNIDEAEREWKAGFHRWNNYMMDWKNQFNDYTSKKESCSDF
The data set is described as follows: biochemical. Format: biochemical. As to conditions: for IC50: BuChE from equine serum, mean ± SD (n=3); for BuChE inhibitory activity (in words): verbal summary of Table 2, comparison with donepezil. Here is the method: as §1, §2
The method for determining BuChE is the same as the method for measuring AChE. The sample can be added with reference to Table 6, AChE is changed to BuChE, and the substrate ATChI is changed to substrate BTChI. The order of loading and the amount of loading are the same as Table 6. The absorbance was determined by UV spectrophotometer, and the inhibition rate of BuChE and the IC50 value of each sample were calculated according to the formula. The formula used is the same as AChE.

Data set [2] relates to aluminium trichloride-induced zebrafish juveniles. The data set is described as follows: Effects of compounds on aluminium trichloride-induced behavioural inhibition of zebrafish juveniles (Zebrobox). As to conditions: for Total movement distance: mean ± SE, n=8; for Effect on behavioural inhibition of zebrafish induced by aluminium trichloride (in words): compared with the model group.
Procedure: The most suitable modelling concentrations were chosen, and then the effect of the compounds on the behaviour of the aluminium trichloride-induced zebrafish juveniles was explored.
The 72 hpf zebrafish were placed in a petri dish, and the normal developing juveniles were selected under a microscope in a 12-well plate. […] The continuous drug solution was exposed for 3 days. […] Each well was juvenile fish developed to 72 h post-exposure (hpe) and added 0.5 mL of culture water and 8 juveniles were set in each experimental group. The well plate was placed in the dark box of the zebrafish behaviour analysis system. The fish was first adapted to 10 min at the beginning of the experiment. The trajectories of the juveniles in each group were collected using zeblab software for 10 min, recorded every 5 min, and exported by software. Then calculate the total distance of each group of zebrafish juveniles.
The zebrafish with 72 hpf after fertilisation is placed in a petri dish. Under normal conditions, the normal developing juvenile fish are selected in a 12-well plate, and 15 juveniles per hole are set. Control group (0.5% DMSO), model group (5.0 mg/L AlCl3), 5.0 mg/L AlCl3 + test compound 5 μg/mL group, 5.0 mg/L AlCl3 + test compound 10 μg/mL group, 5.0 mg/L AlCl3 + test compound 50 μg/mL group, 5.0 mg/L AlCl3 + test compound 100 μg/mL group, three duplicate wells were set at each concentration. After the administration, the zebrafish was placed in a constant temperature incubator at 28 °C to continue the culture for 3 days. Changing the liquid (aquaculture water) every 24 h and removing dead young fish.

A further data set concerns zebrafish juveniles. The data set can be described thus: Model of exercise retardation, death and teratogenicity in zebrafish juveniles made of aluminium trichloride. As to conditions: for Movement distance: 72 hpe, n=6; for Movement distance / Malformation rate / Mortality rate: mean ± SE; for Malformation rate / Mortality rate: after 72 h, n=90.
[3] abbreviates: 5 mg/L compound + 5.0 mg/L AlCl3, 3 days.
The mark [4] stands for this setting: 10 mg/L compound + 5.0 mg/L AlCl3, 3 days.
The mark [5] stands for this setting: 50 mg/L compound + 5.0 mg/L AlCl3, 3 days.
Where [6] appears, read: 100 mg/L compound + 5.0 mg/L AlCl3, 3 days.

Here are results for nine compounds from paper PMC6534212, “Synthesis and biological evaluation of 3–(4-aminophenyl)-coumarin derivatives as potential anti-Alzheimer’s disease agents” (Journal of Enzyme Inhibition and Medicinal Chemistry, 2019).

Entries after “also recorded” stand apart in the source; their conditions may differ.

T1 sequence (O42275 24-633): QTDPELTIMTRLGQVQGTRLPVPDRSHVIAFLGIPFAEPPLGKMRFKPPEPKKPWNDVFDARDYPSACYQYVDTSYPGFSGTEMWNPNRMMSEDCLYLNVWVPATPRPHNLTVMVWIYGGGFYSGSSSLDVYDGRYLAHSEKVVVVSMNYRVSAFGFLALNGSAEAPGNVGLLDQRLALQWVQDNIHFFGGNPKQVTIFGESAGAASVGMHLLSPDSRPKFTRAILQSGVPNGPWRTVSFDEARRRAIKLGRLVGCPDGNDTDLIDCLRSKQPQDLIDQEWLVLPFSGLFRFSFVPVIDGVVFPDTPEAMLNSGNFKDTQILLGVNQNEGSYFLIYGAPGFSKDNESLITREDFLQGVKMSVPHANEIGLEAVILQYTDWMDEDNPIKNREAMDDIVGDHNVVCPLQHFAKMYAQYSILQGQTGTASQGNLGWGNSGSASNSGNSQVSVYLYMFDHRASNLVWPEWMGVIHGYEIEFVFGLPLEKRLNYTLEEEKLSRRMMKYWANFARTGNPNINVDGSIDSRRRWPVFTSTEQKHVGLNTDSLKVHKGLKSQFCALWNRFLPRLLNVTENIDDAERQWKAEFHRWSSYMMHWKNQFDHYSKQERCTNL

Broadly, the IC50 is the concentration needed to halve the response being measured. The low end stands for inhibition by little substance, the high end for a need for much substance. With `O=C(Nc1ccc(-c2cc3ccc(O)cc3oc2=O)cc1)c1cccc(Cl)c1` [Compound 4f, 3-[4-(3-chloro-benzoylamino)-phenyl]-7-hydroxy-coumarin], the IC50 in data set [1] amounted to 1.94 ± 0.141 µM; against BuChE from equine serum it was 2.56 ± 0.275 µM. Besides, the “SI: selectivity index (IC50 BuChE/IC50 AChE)” value (shortened to “SI: selectivity index”) in data set [1] was 1.319. Moreover, in data set [1], the “AChE inhibitory activity (in words)” value is “moderate to excellent AChE inhibitory activity”. The “BuChE inhibitory activity (in words)” value at BuChE from equine serum was “better than donepezil”. For the same compound, the Total movement distance was found to be 205.7 ± 4.5 cm in data set [2] (setting [3]), 223.2 ± 16.4 cm in data set [2] (setting [4]), 236 ± 11.5 cm in data set [2] (setting [5]) and 244.8 ± 13.6 cm in data set [2] (setting [6]). The “Effect on behavioural inhibition of zebrafish induced by aluminium trichloride (in words)” value (“Effect on behavioural inhibition” for short) in data set [2] is “certain therapeutic effects; also recorded: could alleviate the behavioural inhibition symptoms”.
For the compound `O=C(Nc1ccc(-c2cc3ccc(O)cc3oc2=O)cc1)c1ccco1` [Compound 5a, 3-[4-(furan-2-formylamino)-phenyl]-7-hydroxy-coumarin], the IC50 in data set [1] came to 2.49 ± 0.151 µM; against BuChE from equine serum, 9.55 ± 0.455 µM. For the same compound, the “SI: selectivity index” value in data set [1] amounted to 3.842. For the same compound, the “AChE inhibitory activity (in words)” value in data set [1] was “moderate to excellent AChE inhibitory activity”. Besides, the Total movement distance amounted to 194.2 ± 6.5 cm in data set [2] (setting [3]), 188.8 ± 14.7 cm in data set [2] (setting [4]), 215.5 ± 17.1 cm in data set [2] (setting [5]) and 187.2 ± 6.2 cm in data set [2] (setting [6]).
For `COc1cccc2cc(-c3ccc(NC(=O)c4ccc5ccccc5c4)cc3)c(=O)oc12` [Compound 7b, 3-[4-(2-naphthoylamino)-phenyl]-8-methoxy-coumarin], in data set [1], the IC50 came out at 0.128 ± 0.011 µM, the “SI: selectivity index” value is reported as 341.87, the “Selectivity AChE/BuChE (in words)” value is on record as “highly selective for AChE” and the “AChE inhibitory activity (in words)” value was “moderate to excellent AChE inhibitory activity”. Moreover, the IC50 at BuChE from equine serum amounted to 43.8 ± 1.97 µM. Besides, the Total movement distance in data set [2] (setting [4]) is recorded as 278.4 ± 11.4 cm. Further, the Total movement distance in data set [2] (setting [5]) is recorded as 227.4 ± 8.1 cm. Also, in data set [2] (setting [6]), the Total movement distance is given as 272.1 ± 10.4 cm.
Consider `COc1cccc2cc(-c3ccc(NC(=O)c4ccc(CCl)cc4)cc3)c(=O)oc12` [Compound 4m, 3-[4-(4-chloromethyl-benzoylamino)-phenyl]-8-methoxy-coumarin], for which the IC50 in data set [1] amounted to 0.091 ± 0.011 µM; at BuChE from equine serum it was 41.2 ± 1.04 µM. Also, the “SI: selectivity index” value in data set [1] was 452.637. Besides, the “Selectivity AChE/BuChE (in words)” value in data set [1] is “highly selective for AChE”. The “AChE inhibitory activity (in words)” value in data set [1] was “moderate to excellent AChE inhibitory activity”. The Total movement distance in data set [2] (setting [3]) was 198.3 ± 10.1 cm; in data set [2] (setting [4]), 210.2 ± 6.0 cm; in data set [2] (setting [5]), 230.8 ± 6.2 cm; in data set [2] (setting [6]), 247.1 ± 12.3 cm. In data set [2] (at 50.0 and 100.0 μg/mL concentration), the “Effect on total distance of zebrafish juvenile movement (in words)” value is listed as “significant therapeutic effect; also recorded: significant effects compared with the model group”. Further, the “Effect on behavioural inhibition” value in data set [2] is recorded as “certain therapeutic effects; also recorded: could alleviate the behavioural inhibition symptoms”.
Regarding `COc1cccc2cc(-c3ccc(NC(=O)c4cccc(F)c4)cc3)c(=O)oc12` [Compound 4j, 3-[4-(3-fluoro-benzoylamino)-phenyl]-8-methoxy-coumarin], the IC50 stood at 4.16 ± 0.161 µM in data set [1] and 0.905 ± 0.081 µM on BuChE from equine serum. Also, the “SI: selectivity index” value in data set [1] is recorded as 0.217. Moreover, the “AChE inhibitory activity (in words)” value in data set [1] is recorded as “moderate to excellent AChE inhibitory activity”. For the same compound, the “BuChE inhibitory activity (in words)” value on BuChE from equine serum is given as “better than donepezil”. For the same compound, the Total movement distance in data set [2] (setting [3]) worked out at 208.8 ± 9.6 cm; in data set [2] (setting [4]) it was 226 ± 10.7 cm; in data set [2] (setting [5]) it was 231.8 ± 13.2 cm; in data set [2] (setting [6]) it was 225.7 ± 13.4 cm. For the same compound, the “Effect on behavioural inhibition” value in data set [2] is on record as “certain therapeutic effects; also recorded: could alleviate the behavioural inhibition symptoms”.
For `COc1cccc2cc(-c3ccc(NC(=O)c4ccc(F)cc4)cc3)c(=O)oc12` [Compound 4k, 3-[4-(4-fluoro-benzoylamino)-phenyl]-8-methoxy-coumarin], the results for the IC50 (in data set [1]; at BuChE from equine serum) were 28 ± 2.56 µM and 0.559 ± 0.017 µM, respectively. The “SI: selectivity index” value in data set [1] is on record as 0.020. The “Selectivity AChE/BuChE (in words)” value in data set [1] is reported as “highly selective for BuChE”. The “BuChE inhibitory activity relative to donepezil” value on BuChE from equine serum (more active than donepezil) came to 5 times. Also, the “BuChE inhibitory activity (in words)” value at BuChE from equine serum is “better than donepezil”. The Total movement distance in data set [2] (setting [3]) came out at 194.9 ± 5.5 cm; in data set [2] (setting [4]), 186.7 ± 7.7 cm; in data set [2] (setting [5]), 181.8 ± 6.9 cm; in data set [2] (setting [6]) it was 205.7 ± 9.5 cm.
For the compound `COc1cccc2cc(-c3ccc(NC(=O)c4cccc(Cl)c4Cl)cc3)c(=O)oc12` [Compound 4r, 3-[4-(2,3-dichloro-benzoylamino)-phenyl]-8-methoxy-coumarin], the values for the IC50 (in data set [1]; against BuChE from equine serum) were 19.7 ± 2.45 µM and 4.33 ± 0.125 µM, respectively. Besides, the “SI: selectivity index” value in data set [1] is reported as 0.220. Further, the Total movement distance in data set [2] (setting [3]) came to 178 ± 11.2 cm; in data set [2] (setting [4]), 182.4 ± 4.6 cm; in data set [2] (setting [5]), 196.4 ± 11.7 cm; in data set [2] (setting [6]), 194.4 ± 9.4 cm.
`COc1cccc2cc(-c3ccc(NC(=O)c4ccc(C(F)(F)F)cc4)cc3)c(=O)oc12` [Compound 4l, 3-[4-(4-trifluoromethyl-benzoylamino)-phenyl]-8-methoxy-coumarin]: the IC50 in data set [1] is 5.6 ± 0.132 µM; on BuChE from equine serum, 4.32 ± 0.685 µM. Moreover, the “SI: selectivity index” value in data set [1] is 0.772. Moreover, the “AChE inhibitory activity (in words)” value in data set [1] is “moderate to excellent AChE inhibitory activity”. Moreover, the Total movement distance in data set [2] (setting [3]) is given as 179.9 ± 10.1 cm; in data set [2] (setting [4]) it was 194.6 ± 13.6 cm; in data set [2] (setting [5]), 211.5 ± 20.2 cm; in data set [2] (setting [6]), 184.8 ± 11.5 cm.
Turning to `[Cl][Al]([Cl])[Cl]` [AlCl3, aluminium trichloride], the Movement distance stood at 292.4 ± 6.7 cm in the data set on zebrafish juveniles (AlCl3 0.1 mg/L); 236.8 ± 9.4 cm with zebrafish juveniles (AlCl3 0.5 mg/L); 224.3 ± 10.8 cm in the data set with zebrafish juveniles (AlCl3 1.0 mg/L); 181.3 ± 9.6 cm in the data set on zebrafish juveniles (AlCl3 5.0 mg/L); 204.6 ± 12.8 cm with zebrafish juveniles (AlCl3 10.0 mg/L). For the same compound, the Malformation rate stood at 0.00 ± 0.00% with zebrafish juveniles (AlCl3 0.1 mg/L); 0.00 ± 0.00% with zebrafish juveniles (AlCl3 0.5 mg/L); 1.11 ± 0.17% in the data set on zebrafish juveniles (AlCl3 1.0 mg/L); 2.22 ± 0.17% with zebrafish juveniles (AlCl3 5.0 mg/L); 16.67 ± 0.29 % in the data set with zebrafish juveniles (AlCl3 10.0 mg/L); 100.00 ± 0.00 % with zebrafish juveniles (AlCl3 50.0 mg/L). For the same compound, the Mortality rate in the data set with zebrafish juveniles (AlCl3 0.1 mg/L) turned out to be 0.00 ± 0.00%; with zebrafish juveniles (AlCl3 0.5 mg/L) it was 0.00 ± 0.00%; in the data set with zebrafish juveniles (AlCl3 1.0 mg/L), 0.00 ± 0.00%; in the data set with zebrafish juveniles (AlCl3 5.0 mg/L), 1.11 ± 0.17%; in the data set on zebrafish juveniles (AlCl3 10.0 mg/L), 11.11 ± 0.17 %; in the data set on zebrafish juveniles (AlCl3 50.0 mg/L) it was 100.00 ± 0.00 %. Moreover, the “Death or malformation of zebrafish (in words)” value in the data set with zebrafish juveniles (AlCl3 50.0 mg/L, after 24 h administration) is on record as “Most of the fish in the 50.0 mg/L group were dead or malformed”. Further, the “Death of zebrafish (in words)” value with zebrafish juveniles (AlCl3 50.0 mg/L, at 48 h) is on record as “all fish died”.
